The values below come from US9945862B2, “Biomarkers for predicting and assessing responsiveness of thyroid and kidney cancer subjects to lenvatinib compounds” (Eisai R&D Management Co., Ltd., priority 2011, dated 2018).

“Also recorded” adds a separate entry of the source.

One experiment concerns thyroglobulin. Put plainly: Serum thyroglobulin, chemiluminescent immunometric assay (IMMULITE 2000), pre- and post-treatment with E7080. Format: in vivo, human. As to conditions: 48 days (within 2 cycles) after treatment; decrease continued to cycle 8.
In experiment [1] the test system is differentiated thyroid cancer patients. In words: Progression free survival of E7080-treated DTC patients (Logrank test, Cox proportional hazards model with or without PK covariate). The format is in vivo, human. As to conditions: patients with mutations in NRAS alone or in either NRAS or KRAS vs wild type for NRAS or KRAS. Here is the method:
The period during which a patient takes E7080 was artificially divided into different Cycles for ease of evaluation and tracking. Patients received E7080 at a dose of 24 mg oral once daily in 28 day cycles. For analysis purposes, assessments of clinical outcomes were performed at the time of the 9 month and at 14 month minimum follow-up. For the E7080 Thyroid Cancer trial, each Cycle is 28 days (4 weeks) so Day 1-28 is cycle 1; Day 29 is Day 1 of Cycle 2; and Day 57 is Day 1 of Cycle 3. Blood samples were collected for pharmacokinetic (PK) analysis on Cycle 1 Days 1 and 8, Cycle 2 Day 1, and Cycle 3 Day 1. A total of 9 samples per patient were collected as follows: Cycle 1 Day 1: immediately prior to the dose of E7080, and at 0.5 and 2 hours following the first dose of E7080 (post-dose); Cycle 1 Day 8: immediately prior to the dose of E7080; Cycle 2 Day 1: immediately prior to the dose of E7080, 0.5 and 2 hours post-dose; Cycle 3 Day 1: immediately prior to the dose of E7080 and 2 hours post-dose. For analysis of progression free survival, PK parameter was used as a covariate in Cox proportional hazards model. […]
The association of gene mutations with progression free survival of treated patients was analyzed first by performing Logrank test and then using Cox proportional hazards model with or without covariates. […]

The test system is the same in experiment [2]. In words: Multivariate prediction models of PFS combining mutations and blood biomarkers (Cox proportional hazards model, hazard threshold, log rank test). Format: in vivo, human. As to conditions: pre-treatment. Here is the method: All factors (i.e., mutations, thyroglobulin, cytokine, chemokine and angiogenic factors) were used as independent variables of interest, that is, as biomarker candidates. PFS was used as a dependent variable, that is, as one of the clinical outcomes, in this analysis. Firstly, all factors were screened according to p-values calculated by Cox proportional hazards model with single factor. Secondly, all combinations of the screened factors were tested by Cox proportional hazards model to find significant factors in all combinations of the factors. Combinations in which all factors were significant were chosen for further analysis. Hazard functions of the combinations of factors defined by their coefficients were obtained from this analysis. Each patient has his/her own hazard value for each model, so that patients can be assigned into two groups when a threshold of hazard is given for a model. After grouping patients, log rank test of progression free survival was performed to test difference of survival curves between two groups (low hazard and high hazard). The best threshold of hazard for each model of combination of factors was identified by sweeping threshold to calculate log rank test p-values and finding a threshold that minimized the smoothed curve constructed from the p-values, which was similar to the approach described in U. Abel, J. Berger and H. Wiebelt, “CRITLEVEL: An Exploratory Procedure for the Evaluation of Quantitative Prognostic Factors”, Methods Inf. Medicine, 23(3):154-6(1984). The best thresholds of the models divided patients into high and low hazard groups. Patients are predicted as longer PFS when their hazard value is lower than the threshold.

The test system of experiment [3] is thyroid, kidney and endometrial cancers, as well as melanoma. The conditions noted are these: phase I; cited from earlier work.

`COc1cc2nccc(Oc3ccc(NC(=O)NC4CC4)c(Cl)c3)c2cc1C(N)=O` [E7080, 4-(3-chloro-4-(cyclopropylaminocarbonyl)aminophenoxy)-7-methoxy-6-quinolinecarboxamide]: in the experiment on thyroglobulin, the “Change in serum thyroglobulin levels after treatment” value is reported as “significantly decreased”. For the same compound, the “Progression free survival, Logrank test” value in experiment [1] is reported as “better progression free survival; also recorded: better PFS”. Further, the “HR (low vs high hazard group, PFS)” value was 0.545 in experiment [2] (prediction model: ANG-2); 1.00E−09 in experiment [2] (prediction model: IL13 + MIP1a); 0.121 in experiment [2] (prediction model: IL13 + MIP1a + MIP1b); 0.115 in experiment [2] (prediction model: NRAS mutation + ANG-2 (log10(ANg2))); 0.085 in experiment [2] (prediction model: NRAS mutation + ANG-2 (log10(Ang290))); 2.60E−10 in experiment [2] (prediction model: NRAS mutation + VEGFA + ANG-2 + MIP1b + sVEGFR3). Besides, the “HR (low vs high hazard group, PFS)” value in experiment [2] (prediction model: NRAS mutation + VEGFA + MIP1b) was 0.097; in experiment [2] (prediction model: NRAS mutation + VEGFA + MIP1b + sVEGFR3) it was 0.054; in experiment [2] (prediction model: NRAS mutation, D(NRAS, MU)), 0.124; in experiment [2] (prediction model: VEGFA), 0.552; in experiment [2] (prediction model: VEGFA + ANG-2) it was 0.386; in experiment [2] (prediction model: VEGFA + ANG-2 + GCSF), 0.413. Further, the “HR (low vs high hazard group, PFS)” value in experiment [2] (prediction model: mutation in any of BRAF, KRAS, NRAS + MIP1a) is recorded as 0.086; in experiment [2] (prediction model: mutation in any of BRAF, KRAS, NRAS + VEGFA + MIP1a + MIP1b + IL-6), 1.90E−10; in experiment [2] (prediction model: mutation in any of KRAS, NRAS + ANG-2), 0.083; in experiment [2] (prediction model: mutation in any of KRAS, NRAS, D(KRASNRAS, MU)), 0.205. Besides, the Clinical response result in experiment [3] is given as “response to treatment was observed”.
